Data from patent US4859655A, “Urdamycin G and derivatives thereof, a process for their preparation and their use” (Hoechst Aktiengesellschaft, priority 1986, dated 1989).
≈ marks a conversion by molar mass, not a printed value.

Key:
[1] = test system: L 1210 tumor cells; assay: Proliferation experiment (MTT, 72 hours); format: cell-based; details: Mus musculus, L1210, L 1210, 72 hours, 4 experiments, deviation less than 15%
Procedure: L 1210 tumor cells at the exponential growth phase (5×10^3 cells/ml, Roswell Park Memorial Institute (RPMI) medium) were incubated in a microtiter plate with […] for a period of 72 hours at 37° C., 5% of CO2 and 95% relative atmospheric humidity and various concentrations of the test substances. After 65 hours, 50 μl of [3-(4,5-dimethylthiazol-2-yl)-2,5-diphenyltetrazolium bromide](MTT) (2.5 mg/ml of MTT in phosphate buffer saline (PBS)) were added. The MTT was reduced by living cells into the red, water-insoluble dyestuff formazan. After a further 7 hours, the supernatant medium was carefully removed. Formazan was dissolved by adding 100 μl of dimethyl sulfoxide per recess and subsequent shaking gently. The extinction of each recess was determined using a Multisan 340 CC photometer (Messrs. Flow) at 492 nm. The results were determined from the extinction ratio of cells with test substance to cells without test substance.
(§1) In all cases, the experiments were carried out 4 times. The deviation in the results was less than 15%.

[2] = test system: L 1210 leukemia cells; assay: Soft-agar assay, continuous incubation (Hamburger and Salmon); format: cell-based; details: Mus musculus, L1210; L 1210, continuous incubation 5 to 7 days; 4 experiments, deviation less than 15%
Procedure: (§2) The experiment was carried out in accordance with the process of Hamburger and Salmon [New Engl. J. Med. 298, 1321-1327 (1978)]. The medium was replaced by McCoy 5A, and the number of cells was reduced to 5×10^2 cells/plate.
A continuous incubation of the cells with various concentrations of the test substance from Examples 4 and 5 was carried out. The compounds to be tested were applied to the agar plates before plating-out the cell cultures. The cell cultures then grew for 5 to 7 days in the incubator in an atmosphere of 5% of CO2, 20% of O2 and 95% relative atmospheric humidity at 37° C. After this time, the number of cell colonies having a diameter from 60 μm was determined (in %) relative to the number of cell colonies which had grown in comparison without test substance.
(§3) The IC50 value for continuous and 1-hour incubation was determined from the dose/action curve.
as §1

[3] = test system: L 1210 leukemia cells; assay: Soft-agar assay, 1-hour incubation (Hamburger and Salmon); format: cell-based; details: Mus musculus, L1210; L 1210, 1-hour incubation; 4 experiments, deviation less than 15%
Procedure: as §2
In the test, the cells were incubated at 37° C. for 1 hour at various concentrations of the test substance. The cells were then washed twice with McCoy 5A solution (Flow catalog, Meckenheim, FRG) and subsequently applied to agar plates in accordance with the method of Hamburger and Salmon. The cells were subsequently cultivated as described above, and the number of cell colonies was determined (evaluation as in a).
as §3, §1

[4] = solubility; format: physicochemical
[5] = test system: Gram-positive and Gram-negative bacteria; assay: plate-agar diffusion test in vitro; format: cell-based; details: 10 μl/test circle, 6 mm diameter
[6] = stability in the solid state and as a solution; format: physicochemical; details: pH range from 3 to 9, in particular from 5 to 8
[7] = test system: human and animal tumor cells; assay: tumor-inhibiting action in vitro; format: cell-based

Row | IC50 [3] [µg/mL] | Structure (SMILES) | IC50 [1] [µg/mL] | IC50 [2] [µg/mL] | solubility ([4]; methanol, acetone, DMSO, dioxane and chloroform) | solubility ([4]; water and alkanes) | antibacterial action [5] | stability [6] | tumor-inhibiting action [7]
1 | 0.065 (≈ 0.0736 µM) | CC(=O)Oc1c(C2CC(OC3CCC(OC(C)=O)C(C)O3)C(OC(C)=O)C(C)O2)ccc2c1C(=O)C1=C(C2=O)C2(OC3CCC(OC(C)=O)C(C)O3)C(=O)CC(C)(O)CC2(O)C=C1 (stereo not shown) [5',4A,4C,8-Tetra-O-acetyl-urdamycin G, 5',4A,4C,8-tetra-O-acetyl urdamycin G] | < 1 | 0.036 (≈ 0.0408 µM) |  |  |  |  | 
2 |  | CC1OC(OC2CC(c3ccc4c(c3O)C(=O)C3=C(C4=O)C4(OC5CCC(O)C(C)O5)C(=O)CC(C)(O)CC4(O)C=C3)OC(C)C2O)CCC1O (stereo not shown) [Urdamycin G] | 3.5 (≈ 4.9 µM) | 0.85 (≈ 1.19 µM) | readily soluble | not in water and alkanes | comes into effect both against Gram-positive and Gram-negative bacteria | stable | tumor-inhibiting action
